The source of these data is patent US20120309676A1, “Lantibiotic Salts” (priority 2010, published 2012).

Structures can show the parent of a compound that is named as a salt.

Data set [1] can be described thus: In vivo plasma half-life in mice. As to conditions: male, mouse, 29.76 mg/kg; CD-1 mice, IV dose of Example 1 (9.3 mL/Kg of 3.2 mg/mL solution); Compound 1 in plasma by LC-MS. Here is the method: The in vivo half-life of Compound 1 in mice was determined by measurement of its plasma concentrations at various time points following IV dosing. 18 male CD-1 mice aged 7-9 weeks were dosed IV with a 9.3 mL/Kg dose of a 3.2 mg/mL solution of Example 1 in 15% hydroxypropyl-β-cyclodextrin/4.4% glucose/1 mM potassium phosphate (pH=7.6). Plasma samples were obtained at 10, 20, 30, 60, 120 and 240 min post-dose, sampling from 3 animals at each time point. Concentrations of Compound 1 in plasma were determined by LC-MS quantification.

A short description of a further data set: Aqueous solubility. Format: physicochemical. Particulars: for pH of saturated solution: aqueous saturated solution. The source says: Solubility as employed herein is used generically to refer to a distribution of a compound of formula (I) in a solvent (for example water, saline or an aqueous isotonic solution such as glucose) such that the formulation/composition resulting therefrom is substantially free of visible aggregates and for example is substantially transparent when viewed by the naked eye. Such a formulation would therefore include a whole range of formats which are suitable for infusion and/or injection such as solutions, suspensions, colloids and the like. […]

For data set [2], the system named is Staphylococcus aureus methicillin resistant ATCC 33591. Briefly: Mouse bacteraemia model, SC dosing. Format: in vivo. The method, then:
Groups of 6 male CD-1 (Crl.) derived mice weighing 24±2 g were used. Mice were inoculated intraperitoneally (IP) with an LD90-100 of Staphylococcus aureus methicillin resistant ATCC 33591 (1.1×10^7 CFU/mouse) in 0.5 mL of BHI broth containing 5% mucin. Example 1 and vancomycin were dissolved in 15% HPbetaCD/4.4% glucose/0.5 mM KH2PO4, pH 5.0 and doses of 1, 3, 5, 10 and 20 mg/Kg were administered subcutaneously (SC) to test animals at 0, 2 and 24 hour(s) after bacteria challenge. The dosing volume was 5 mL/Kg. Mortality was recorded once daily for 7 days (FIG. 1). The ED50 for each compound was determined by nonlinear regression.

Data set [3] relates to Methicillin Resistant Staphylococcus aureus (MRSA, ATCC 33591). Briefly: Neutropaenic mouse thigh infection model, further experiment. Particulars: IV 2 and 14 h after infection, 2.5-50 mg/Kg, FIG. 3. Format: in vivo. Here is the method: In a further experiment, groups of 6 male ICR mice weighing 24±2 g were used. Test animals were immunosuppressed by 2 intraperitoneal injections of cyclophosphamide, the first at 150 mg/Kg 4 days before infection (day-4) and the second at 100 mg/Kg 1 day before infection (day-1). On day 0, individual animals were inoculated intramuscularly (IM) into the right thigh of test animals with 1.5×10^5 CFU/mouse of Methicillin Resistant Staphylococcus aureus (MRSA, ATCC 33591) suspended in 100 μL of sterile PBS, pH 7.4. Vehicle and test substances were administered intravenously (IV) at a dose volume of 8 mL/Kg, 2 and 14 hours after thigh infection. Example 1 was dissolved in 5% dextrose/1 mM potassium phosphate, pH 5.0 and administered at doses of 2.5, 5, 10, 15, 25 and 50 mg/Kg. At 26 hours after inoculation, muscle of the right thigh of each test mouse was harvested. From an additional group with no treatment, muscle of the right thigh was harvested at 2 hours after inoculation for the basal CFU determination. The removed muscle tissues were then homogenized in 3-4 mL of PBS, pH 7.4 with a ceramic mortar. Homogenates of 0.1 mL were used for serial 10-fold dilutions and plated on Mueller Hinton broth in 1.5% Bacto agar for CFU determination.

Data set [4] has as its system Staphylococcus aureus methicillin resistant ATCC 33591. The data set can be described thus: Mouse bacteraemia model, second experiment, IV dosing. Format: in vivo. As to conditions: for number of deaths: after 7 days, groups of 6 mice. Here is the method: In a second experiment Groups of 6 male CD-1 (Crl.) derived mice weighing 24±2 g were used. Mice were inoculated intraperitoneally (IP) with an LD90-100 of Staphylococcus aureus methicillin resistant ATCC 33591 (1.35×10^8 CFU/mouse) in 0.5 mL of BHI broth containing 5% mucin. Example 1 was dissolved in 5% dextrose/1.5 mM potassium phosphate, pH 5.0 and doses of 1, 3, 5 and 10 mg/Kg were administered intravenously (IV) to test animals at 1 and 13 hour(s) after bacteria challenge. The dosing volume was 5 mL/Kg. Mortality was recorded once daily for 7 days.

In data set [5] the test system is Methicillin Resistant Staphylococcus aureus (MRSA, ATCC 33591). Briefly: Neutropaenic mouse thigh infection model. Format: in vivo. The method, then:
In vivo efficacy of compounds of the present invention in the treatment of bacterial tissue infections was evaluated using a neutropaenic mouse thigh model.
Groups of 6 male ICR mice weighing 24±2 g were used. Test animals were immunosuppressed by 2 intraperitoneal injections of cyclophosphamide, the first at 150 mg/Kg 4 days before infection (day-4) and the second at 100 mg/Kg 1 day before infection (day-1). On day 0, individual animals were inoculated intramuscularly (IM) into the right thigh of test animals with 1.15×10^8 CFU/mouse of Methicillin Resistant Staphylococcus aureus (MRSA, ATCC 33591) suspended in 100 μL of sterile PBS, pH 7.4. Vehicle and test substances were administered intravenously (IV) at a dose volume of 6 mL/Kg, 2 and 14 hours after thigh infection. Example 1 and vancomycin were dissolved in 15% hydroxypropyl-β-cyclodextrin/4.4% glucose/1.5 mM potassium phosphate buffer, pH 7.0 and administered at doses of 5, 10, 20, 30 and 40 mg/Kg. At 26 hours after inoculation, muscle of the right thigh of each test mouse was harvested. From an additional group with no treatment, muscle of the right thigh was harvested at 2 hours after inoculation for the basal CFU determination. The removed muscle tissues were then homogenized in 3-4 mL of PBS, pH 7.4 with a ceramic mortar. Homogenates of 0.1 mL were used for serial 10-fold dilutions and plated on Mueller Hinton broth in 1.5% Bacto agar for CFU determination. […] Results (mean cfu/g) are graphically represented in FIG. 2.

[6] abbreviates: aqueous, * = calculations made from two determinations.

In the case of `CCC(C)[C@@H]1NC(=O)[C@@H]2NC(=O)[C@H](CC(C)C)NC(=O)[C@H](NC(=O)[C@H]3CSC[C@H](N)C(=O)N[C@@H](CO)C(=O)NCC(=O)N[C@@H](Cc4c[nH]c5ccccc45)C(=O)N[C@@H](C(C)C)C(=O)N3)[C@H](C)SC[C@H](NC(=O)[C@H](CCC(=O)O)NC1=O)C(=O)NCC(=O)N[C@@H]1C(=O)N[C@@H](CC(C)C)C(=O)N[C@@H](C(C)C)C(=O)N[C@@H](CS[C@H]2C)C(=O)N[C@@H](C)C(=O)N[C@H](C(=O)NCc2cc(Cl)cc(Cl)c2)CS[C@H]1C` (stereo partly drawn) [Compound 1, Deoxyactagardine B (3,5-dichlorobenzylamine) monocarboxamide], the half-life (commonly the time needed for the level to fall by half in the phase considered) in data set [1] is about 2 h.
For `CC[C@H](C)[C@@H]1NC(=O)[C@@H]2NC(=O)[C@H](CC(C)C)NC(=O)[C@H](NC(=O)[C@@H]3CSC[C@@H](N)C(=O)N[C@@H](CO)C(=O)NCC(=O)N[C@@H](Cc4c[nH]c5ccccc45)C(=O)N[C@@H](C(C)C)C(=O)N3)[C@H](C)SC[C@H](NC(=O)[C@H](CCC(=O)O)NC1=O)C(=O)NCC(=O)N[C@H]1C(=O)N[C@@H](CC(C)C)C(=O)N[C@@H](C(C)C)C(=O)N[C@@H](CS[C@H]2C)C(=O)N[C@@H](C)C(=O)N[C@H](C(=O)NCc2cc(Cl)cc(Cl)c2)CS[C@H]1C` [N-ethyl-D-glucamine salt], the “pH of saturated solution” value in the data set “Aqueous solubility” worked out at 8.43. Also, the Solubility (usually the dissolved amount per volume that the medium holds) in “Aqueous solubility” (setting [6]) is 11.16* mg/mL; in “Aqueous solubility” (salts of compound 1, listed as N-ethyl glucamine salt of compound 1), “more than 10 mg/mL”.
As for `CC[C@H](C)[C@@H]1NC(=O)[C@@H]2NC(=O)[C@H](CC(C)C)NC(=O)[C@H](NC(=O)[C@@H]3CSC[C@@H](N)C(=O)N[C@@H](CO)C(=O)NCC(=O)N[C@@H](Cc4c[nH]c5ccccc45)C(=O)N[C@@H](C(C)C)C(=O)N3)[C@H](C)SC[C@H](NC(=O)[C@H](CCC(=O)O)NC1=O)C(=O)NCC(=O)N[C@H]1C(=O)N[C@@H](CC(C)C)C(=O)N[C@@H](C(C)C)C(=O)N[C@@H](CS[C@H]2C)C(=O)N[C@@H](C)C(=O)N[C@H](C(=O)NCc2cc(Cl)cc(Cl)c2)CS[C@H]1C` [diethanolamine salt], in the data set “Aqueous solubility”, the “pH of saturated solution” value was 8.78. Besides, the Solubility in the data set “Aqueous solubility” (setting [6]) was 6.94* mg/mL; in “Aqueous solubility” (salts of compound 1, listed as diethanolamine salt of compound 1) it was “more than 5 mg/mL”.
Consider `CC[C@H](C)[C@@H]1NC(=O)[C@@H]2NC(=O)[C@H](CC(C)C)NC(=O)[C@H](NC(=O)[C@@H]3CSC[C@@H](N)C(=O)N[C@@H](CO)C(=O)NCC(=O)N[C@@H](Cc4c[nH]c5ccccc45)C(=O)N[C@@H](C(C)C)C(=O)N3)[C@H](C)SC[C@H](NC(=O)[C@H](CCC(=O)O)NC1=O)C(=O)NCC(=O)N[C@H]1C(=O)N[C@@H](CC(C)C)C(=O)N[C@@H](C(C)C)C(=O)N[C@@H](CS[C@H]2C)C(=O)N[C@@H](C)C(=O)N[C@H](C(=O)NCc2cc(Cl)cc(Cl)c2)CS[C@H]1C` [ethanolamine salt], for which, in “Aqueous solubility”, the “pH of saturated solution” value is listed as 8.74. Also, the Solubility in “Aqueous solubility” (setting [6]) was 10.5* mg/mL; in “Aqueous solubility” (salts of compound 1, listed as ethanolamine salt of compound 1), “more than 10 mg/mL”.
Take `CC[C@H](C)[C@@H]1NC(=O)[C@@H]2NC(=O)[C@H](CC(C)C)NC(=O)[C@H](NC(=O)[C@@H]3CSC[C@@H](N)C(=O)N[C@@H](CO)C(=O)NCC(=O)N[C@@H](Cc4c[nH]c5ccccc45)C(=O)N[C@@H](C(C)C)C(=O)N3)[C@H](C)SC[C@H](NC(=O)[C@H](CCC(=O)O)NC1=O)C(=O)NCC(=O)N[C@H]1C(=O)N[C@@H](CC(C)C)C(=O)N[C@@H](C(C)C)C(=O)N[C@@H](CS[C@H]2C)C(=O)N[C@@H](C)C(=O)N[C@H](C(=O)NCc2cc(Cl)cc(Cl)c2)CS[C@H]1C` [triethanolamine salt]: the “pH of saturated solution” value in the data set “Aqueous solubility” amounted to 8.43. Also, the Solubility in “Aqueous solubility” (setting [6]) is 1.04 mg/mL.
With `CC[C@H](C)[C@@H]1NC(=O)[C@@H]2NC(=O)[C@H](CC(C)C)NC(=O)[C@H](NC(=O)[C@@H]3CSC[C@@H](N)C(=O)N[C@@H](CO)C(=O)NCC(=O)N[C@@H](Cc4c[nH]c5ccccc45)C(=O)N[C@@H](C(C)C)C(=O)N3)[C@H](C)SC[C@H](NC(=O)[C@H](CCC(=O)O)NC1=O)C(=O)NCC(=O)N[C@H]1C(=O)N[C@@H](CC(C)C)C(=O)N[C@@H](C(C)C)C(=O)N[C@@H](CS[C@H]2C)C(=O)N[C@@H](C)C(=O)N[C@H](C(=O)NCc2cc(Cl)cc(Cl)c2)CS[C@H]1C` [tromethamine salt], in “Aqueous solubility”, the “pH of saturated solution” value amounted to 8.53. Moreover, in the data set “Aqueous solubility” (setting [6]), the Solubility is given as 2.38 mg/mL.
Regarding `CN[C@H](CC(C)C)C(=O)N[C@H]1C(=O)N[C@@H](CC(N)=O)C(=O)N[C@H]2C(=O)N[C@H]3C(=O)N[C@H](C(=O)N[C@H](C(=O)O)c4cc(O)cc(O)c4-c4cc3ccc4O)[C@H](O)c3ccc(c(Cl)c3)Oc3cc2cc(c3O[C@@H]2O[C@H](CO)[C@@H](O)[C@H](O)[C@H]2O[C@H]2C[C@](C)(N)[C@H](O)[C@H](C)O2)Oc2ccc(cc2Cl)[C@H]1O` [vancomycin, reference compound], the “antimicrobial effect against S. aureus (MRSA) in mice” value in data set [2] (3, 5, 10 and 20 mg/Kg×3, SC) was “significant antimicrobial effect”. Besides, the 50% effective dose (ED50) (in general, the dose at which the effect has come halfway, by size or by number of responders) in data set [2] (Staphylococcus aureus, ATCC33591, CD-1 mice, SC at 0, 2 and 24 h after challenge, mortality over 7 days, nonlinear regression, read-out: estimated ED50) is 3 mg/kg. Besides, the “bacterial counts in the thigh tissue” value in data set [3] is on record as “dose dependent reduction”. Moreover, the number of deaths was determined as 5 in data set [4] (1 mg/kg IV at 1 and 13 h after challenge); 3 in data set [4] (3 mg/kg IV at 1 and 13 h after challenge); 1 in data set [4] (5 mg/kg IV at 1 and 13 h after challenge); 0 in data set [4] (10 mg/kg IV at 1 and 13 h after challenge). For the same compound, in data set [4] (1, 3, 5 and 10 mg/kg), the “survival of mice after 7 days” value is on record as “dose-dependent incease in survival”. For the same compound, the antimicrobial effect result in data set [5] (IV at 5, 10, 20, 30 and 40 mg/Kg×2, 2 and 14 h after thigh infection, harvest at 26 h) was “significant antimicrobial effect”. The “reductions of CFU/g” value in data set [5] (at 30 mg/kg and above, IV ×2, thigh muscle at 26 h) is given as over 100 fold.
